From BindingDB's records for patent US10166249 (Bristol-Myers Squibb, 2019) come the findings set out here.

The assay concerns the target Sphingosine 1-phosphate receptor 1 (Homo sapiens, UniProt P21453). Put plainly: hS1P1 ERK Phosphorylation (S1P1 pERK). How it is done: hS1P1/CHO cells were plated into BD Amine 384-well plates the day before the assay. On the day of the assay, growth medium was removed and replaced with serum-free medium (Ham's F-12 Invitrogen) and incubated for 2 hours. Test compounds pre-diluted in HBSS (Gibco)/20 mM HEPES (Gibco) were transferred to the cell plates and incubated for 7 minutes at 37° C. Cells were lysed in lysis buffer (Perkin Elmer) and phospho-ERK was measured using the SureFire pERK kit (Perkin Elmer) as described by the manufacturer. Data was plotted as percentage activation of the test compound relative to the efficacy of 10 μM S1P.

SMILES strings stand for the structures. pEC50: −log10 of the molar value.

Sphingosine 1-phosphate receptor 1, sequence (P21453 whole entry): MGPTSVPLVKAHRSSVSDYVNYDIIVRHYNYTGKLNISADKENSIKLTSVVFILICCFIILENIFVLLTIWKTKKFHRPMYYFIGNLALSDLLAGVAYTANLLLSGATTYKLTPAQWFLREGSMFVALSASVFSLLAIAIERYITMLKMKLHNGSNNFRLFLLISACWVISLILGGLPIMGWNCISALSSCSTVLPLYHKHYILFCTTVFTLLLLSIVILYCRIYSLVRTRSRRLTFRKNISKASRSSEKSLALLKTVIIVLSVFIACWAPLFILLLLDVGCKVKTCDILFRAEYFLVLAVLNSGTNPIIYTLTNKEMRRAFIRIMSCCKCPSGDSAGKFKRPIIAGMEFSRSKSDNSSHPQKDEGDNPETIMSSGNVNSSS

For `CCSCC[C@H]1CCc2cc([C@H]3CC[C@](N)(COP(=O)(O)O)C3)ccc2C1` [US10166249, Example 532], the pEC50 is > 8.00.

What is called pEC50 is the EC50 on a negative log10 scale, so that one unit is a factor of ten. Higher therefore signals a low EC50.
